This note sets out measurements from patent US6855730B2, “3-methylidenyl-2-indolinone modulators of protein kinase” (Sugen, Inc., priority 1998, dated 2005).

The target of this experiment is T1, 3T3 cell line genetically engineered to express human EGF-R (Homo sapiens, UniProt P00533).
T1 construct: expressed in transfected cells; host or cells: 3T3
Description: EGF-induced BrdU incorporation assay. Conditions: read-out: BrdU EGF driven IC50. The experiment is classed as cell-based. A general note: Incorporation of labelled thymidine or its analogues reports DNA synthesis.
Usually IC50 stands for the midpoint of a concentration-inhibition curve. `Cc1c[nH]c(/C=C2\C(=O)Nc3ccc(Cl)cc32)c1CCC(=O)O` [Example 216, 3-[2-(5-Chloro-2-oxo-1,2-dihydroindol-3-ylidenemethyl)-4-methyl-1H-pyrrol-3-yl]-propionic acid]: the IC50 was greater than 50 µM.
With `Cc1c[nH]c(/C=C2\C(=O)Nc3ccc(Br)cc32)c1CCC(=O)O` [Example 220, 3-[2-(5-Bromo-2-oxo-1,2-dihydroindol-3-ylidenemethyl)-4-methyl-1H-pyrrol-3-yl]-propionic acid], the IC50 was greater than 50 µM.
`COc1c(C(C)C)cc(/C=C2/C(=O)Nc3ccc(Cl)cc32)cc1C(C)C` [Example 2, 5-Chloro-3-(3,5-diisopropyl-4-methoxybenzylidene)-1,3-dihydroindol-2-one]: the IC50 came out at 6.5 µM.
Then `Cc1c[nH]c(/C=C2\C(=O)Nc3cccc(C)c32)c1CCC(=O)O` [Example 218, 3-[2-(4-Methyl-2-oxo-1,2-dihydroindol-3-ylidenemethyl)-4-methyl-1H-pyrrol-3-yl]-propionic acid], with 43.5 µM; and `Cc1c[nH]c(/C=C2\C(=O)Nc3ccccc32)c1CCC(=O)O` [Example 215, 3-[4-Methyl-2-(2-oxo-1,2-dihydroindol-3-ylidenemethyl)-1H-pyrrol-3-yl]-propionic acid], with greater than 100 µM.
Take `COc1ccc2c(c1)/C(=C/c1[nH]cc(C)c1CCC(=O)O)C(=O)N2` [Example 222, 3-[2-(5-Methoxy-2-oxo-1,2-dihydroindol-3-ylidenemethyl)-4-methyl-1H-pyrrol-3-yl]-propionic acid]: the 50% inhibitory concentration (IC50) was greater than 50 µM.
For the compound `COc1c(C(C)C)cc(/C=C2/C(=O)Nc3ccccc32)cc1C(C)C` [Example 1, 3-(3,5-Diisopropyl-4-methoxybenzylidene)-1,3-dihydroindol-2-one], the half-maximal inhibitory concentration (IC50) amounted to 6.6 µM.
On to `COc1ccc2c(c1)NC(=O)/C2=C\c1[nH]cc(C)c1CCC(=O)O` [Example 217, 3-[2-(6-Methoxy-2-oxo-1,2-dihydroindol-3-ylidenemethyl)-4-methyl-1H-pyrrol-3-yl]-propionic acid], for which the IC50 is greater than 50 µM.
For the compound `Cc1c[nH]c(C=C2C(=O)Nc3cc(Cl)ccc32)c1CCC(=O)O` [Example 219, 3-[2-(6-Chloro-2-oxo-1,2-dihydroindol-3-ylidenemethyl)-4-methyl-1H-pyrrol-3-yl]-propionic acid], the IC50 was greater than 50 µM.
